In patent publication US20260365670A1, “EGFR INHIBITORS AND USES THEREOF” (DIZAL (JIANGSU) PHARMACEUTICAL CO., LTD., priority 2022, published 2026):
Read-outs that look alike come from different tables or passages of the source.

Columns and labels:
[1] = molecular target: T1, EGFR[T790M/C797S/d746-750] (Homo sapiens, UniProt P00533, C797S/DEL746-750/T790M); test: Inhibition of EGFR[T790M/C797S/d746-750] biochemical enzymatic activity (HTRF); conditions: EGFR T790M-C797S-Del19, 1 mM ATP, 1 h, room temperature, read-out: IC50 (nM) @T790M - C797S - Del19
T1 construct: purchased Carna Bio
Procedure: (§1) Biological Example 1: Inhibition of EGFR WT and Mutant Biochemical Enzymatic Activity
(§2) The inhibition potency of compounds against these enzymes was assessed using Homogenous Time Resolved Fluorescence approach (HTRF, CisBio. Cat No. 62TKOPEJ).
(§3) Inhibitory effects of the compounds were determined by measuring the enzymatic activity of EGFR enzyme phosphorylates 1 μM TK Substrate-biotin in the presence of 1 mM adenosine-5′-triphosphate (ATP) and varying concentrations of the test compound. The enzyme reaction buffer contains 5 mM MgCl2, 1 mM MnC12, 0.01% CHAPS, 1 mM dithiothreitol (DTT), 0.5% dimethylsulfoxide (DMSO), and 1× supplemented enzymatic buffer. The WT and mutant EGFR enzymes (SignalChem) were added to plates containing inhibitors, followed by activation of the kinase reaction by addition of ATP and peptide substrates. After incubation for 1 h at room temperature, the reaction was stopped by the addition of the detection reagent mix containing EDTA. The fluorescence was measured at 615 nm and 665 nm, respectively with excitation wavelength at 320 nm. The calculated signal ratio of 665 nm/615 nm is proportional to the kinase activity. The concentration of compound producing 50% inhibition of the respective kinase (IC50) was calculated using four-parameter logistic fit with XL-FIT.

[2] = molecular target: T2, EGFR L858R/T790M (Homo sapiens, UniProt P00533, L858R/T790M); test: Inhibition of EGFR L858R/T790M biochemical enzymatic activity (HTRF); conditions: EGFR L858R-T790M, 1 mM ATP, 1 h, room temperature, read-out: IC50 (nM) @L858R-T790M
T2 construct: purchased Carna Bio
Procedure: as §1, §2, §3

[3] = molecular target: T3, EGFR wild type (Homo sapiens, UniProt P00533); test: Inhibition of EGFR wild type biochemical enzymatic activity (HTRF); conditions: EGFR WT, 1 mM ATP, 1 h, room temperature, read-out: IC50 (nM) @WT
T3 construct: purchased Carna Bio
Procedure: as §1, §2, §3

[4] = molecular target: T4, EGFR Exon19Del (Homo sapiens, UniProt P00533, DEL746-750); test: Inhibition of EGFR Exon19Del biochemical enzymatic activity (HTRF); conditions: EGFR Del19, 1 mM ATP, 1 h, room temperature, read-out: IC50 @Del19
T4 construct: purchased Carna Bio
Procedure: as §1, §2, §3

[5] = molecular target: T5, EGFR[T790M/C797S/L858R] (Homo sapiens, UniProt P00533, C797S/L858R/T790M); test: Inhibition of EGFR[T790M/C797S/L858R] biochemical enzymatic activity (HTRF); conditions: EGFR T790M-C797S-L858R, 1 mM ATP, 1 h, room temperature, read-out: IC50 (nM) @T790M- C797S - L858R
T5 construct: purchased Carna Bio
Procedure: as §1, §2, §3

[6] = molecular target: T6, EGFR Exon19Del/T790M (Homo sapiens, UniProt P00533, DEL746-750/T790M); test: Inhibition of EGFR Exon19Del/T790M biochemical enzymatic activity (HTRF); conditions: EGFR Del19-T790M, 1 mM ATP, 1 h, room temperature, read-out: IC50 (nM) @Del19-T790M
T6 construct: purchased Carna Bio
Procedure: as §1, §2, §3

[7] = molecular target: T7, EGFR (C797S L858R) (Homo sapiens, UniProt P00533, C797S/L858R); test: Inhibition of EGFR (C797S L858R) biochemical enzymatic activity (HTRF); conditions: EGFR L858-C797S, 1 mM ATP, 1 h, room temperature, read-out: IC50 (nM) @L858-C797S
T7 construct: purchased signalchem
Procedure: as §1, §2, §3

[8] = molecular target: T8, EGFR (d746-750 C797S) (Homo sapiens, UniProt P00533, C797S/DEL746-750); test: Inhibition of EGFR (d746-750 C797S) biochemical enzymatic activity (HTRF); conditions: EGFR Del19-C797S, 1 mM ATP, 1 h, room temperature, read-out: IC50 (nM) @Del19-C797S
T8 construct: purchased signalchem
Procedure: as §1, §2, §3

[9] = test system: PC-9; test: Cell proliferation assay, PC-9 cells (CellTiter-Glo, 72 hours); assay type: cell-based; conditions: PC9 cells, CellTiter-Glo, read-out: PC9 GI50
Procedure: (§4) Biological Example 2: Cell Proliferation Assays
(§5) Ba/F3 cells expressing EGFR mutations were seeded in 384-well plates at 5000 cells/well in RPMI1640 medium containing […]. PC-9 at 500 cells/well was seeded into 384-well plates in RPMI1640 medium with 10% FBS. After overnight incubation, the assay plates were dosed with compounds at a series of concentrations. Alongside dosing the assay plates, the day 0 plate was processed using CellTiter-Glo® Luminescent Cell Viability Assay (Promega) to measure the number of viable cells (G0). The assay plates were further incubated for 72 hours and the number of viable cells (G3) was measured. The percentage of proliferation was calculated as: […]=100×(G3 value of sample well−G0 value)/(G3 value of DMSO control−G0 value). The concentration of compound producing 50% proliferation inhibition (GI50) was further calculated in best-fit curves using XLFit software. N/A=not available.

[10] = molecular target: T9, EGFR L858R (Homo sapiens, UniProt P00533, L858R); test: Inhibition of EGFR L858R biochemical enzymatic activity (HTRF); conditions: 1 mM ATP, 1 h, room temperature, read-out: IC50 (nM) @L858R
T9 construct: purchased Carna Bio
Procedure: as §1, §2, §3

[11] = test system: Ba/F3 cells expressing EGFR mutations; test: Cell proliferation assay, Ba/F3 cells expressing EGFR mutations (CellTiter-Glo, 72 hours); assay type: cell-based; conditions: CellTiter-Glo
Procedure: as §4, §5

[12] = BaF3 cells, EGFR DEL19-C797S, read-out: DEL19-C797S/BaF3 GI50
[13] = BaF3 cells, EGFR DEL19-T790-C797S, read-out: DEL19-T790-C797S/BaF3 GI50
[14] = BaF3 cells, EGFR L858R, read-out: L858R/BaF3 GI50
[15] = BaF3 cells, EGFR L858R-C797S, read-out: L858R-C797S/BaF3 GI50
[16] = BaF3 cells, EGFR L858R-T790-C797S, read-out: L858R-T790-C797S/BaF3 GI50
[17] = BaF3 cells, EGFR L858R-T790M, read-out: L858R-T790M/BaF3 GI50
[18] = EGFR DEL19-T790M, read-out: DEL19-T790M GI50

T2 sequence (P00533 25-1210 T790M/L858R): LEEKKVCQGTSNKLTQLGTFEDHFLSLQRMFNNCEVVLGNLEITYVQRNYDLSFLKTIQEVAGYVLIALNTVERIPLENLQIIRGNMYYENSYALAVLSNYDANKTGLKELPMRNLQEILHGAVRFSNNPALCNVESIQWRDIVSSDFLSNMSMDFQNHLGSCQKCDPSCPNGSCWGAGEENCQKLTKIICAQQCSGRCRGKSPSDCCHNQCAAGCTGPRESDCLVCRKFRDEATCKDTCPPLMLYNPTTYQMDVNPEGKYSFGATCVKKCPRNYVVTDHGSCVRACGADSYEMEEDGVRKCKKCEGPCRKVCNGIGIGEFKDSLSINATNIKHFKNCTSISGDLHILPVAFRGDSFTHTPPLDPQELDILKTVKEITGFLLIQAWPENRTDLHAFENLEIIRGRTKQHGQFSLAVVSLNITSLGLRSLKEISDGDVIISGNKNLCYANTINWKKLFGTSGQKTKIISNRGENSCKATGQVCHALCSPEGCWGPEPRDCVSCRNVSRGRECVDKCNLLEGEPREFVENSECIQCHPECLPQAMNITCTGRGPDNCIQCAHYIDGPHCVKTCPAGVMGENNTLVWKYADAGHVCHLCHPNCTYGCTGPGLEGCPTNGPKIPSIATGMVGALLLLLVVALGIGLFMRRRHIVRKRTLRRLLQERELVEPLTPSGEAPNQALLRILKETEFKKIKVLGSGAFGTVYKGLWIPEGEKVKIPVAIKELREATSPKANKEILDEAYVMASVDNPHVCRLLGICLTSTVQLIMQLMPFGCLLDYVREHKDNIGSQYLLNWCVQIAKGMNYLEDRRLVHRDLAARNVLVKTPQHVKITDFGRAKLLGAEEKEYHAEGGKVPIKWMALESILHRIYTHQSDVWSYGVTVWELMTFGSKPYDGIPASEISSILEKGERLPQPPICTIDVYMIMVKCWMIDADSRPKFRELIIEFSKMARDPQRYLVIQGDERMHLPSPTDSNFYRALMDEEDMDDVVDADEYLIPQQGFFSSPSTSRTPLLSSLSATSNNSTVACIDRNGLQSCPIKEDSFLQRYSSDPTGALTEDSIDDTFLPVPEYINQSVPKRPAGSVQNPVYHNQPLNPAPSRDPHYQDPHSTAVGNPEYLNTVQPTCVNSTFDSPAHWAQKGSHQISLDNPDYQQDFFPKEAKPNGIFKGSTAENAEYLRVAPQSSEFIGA
T7 sequence (P00533 25-1210 C797S/L858R): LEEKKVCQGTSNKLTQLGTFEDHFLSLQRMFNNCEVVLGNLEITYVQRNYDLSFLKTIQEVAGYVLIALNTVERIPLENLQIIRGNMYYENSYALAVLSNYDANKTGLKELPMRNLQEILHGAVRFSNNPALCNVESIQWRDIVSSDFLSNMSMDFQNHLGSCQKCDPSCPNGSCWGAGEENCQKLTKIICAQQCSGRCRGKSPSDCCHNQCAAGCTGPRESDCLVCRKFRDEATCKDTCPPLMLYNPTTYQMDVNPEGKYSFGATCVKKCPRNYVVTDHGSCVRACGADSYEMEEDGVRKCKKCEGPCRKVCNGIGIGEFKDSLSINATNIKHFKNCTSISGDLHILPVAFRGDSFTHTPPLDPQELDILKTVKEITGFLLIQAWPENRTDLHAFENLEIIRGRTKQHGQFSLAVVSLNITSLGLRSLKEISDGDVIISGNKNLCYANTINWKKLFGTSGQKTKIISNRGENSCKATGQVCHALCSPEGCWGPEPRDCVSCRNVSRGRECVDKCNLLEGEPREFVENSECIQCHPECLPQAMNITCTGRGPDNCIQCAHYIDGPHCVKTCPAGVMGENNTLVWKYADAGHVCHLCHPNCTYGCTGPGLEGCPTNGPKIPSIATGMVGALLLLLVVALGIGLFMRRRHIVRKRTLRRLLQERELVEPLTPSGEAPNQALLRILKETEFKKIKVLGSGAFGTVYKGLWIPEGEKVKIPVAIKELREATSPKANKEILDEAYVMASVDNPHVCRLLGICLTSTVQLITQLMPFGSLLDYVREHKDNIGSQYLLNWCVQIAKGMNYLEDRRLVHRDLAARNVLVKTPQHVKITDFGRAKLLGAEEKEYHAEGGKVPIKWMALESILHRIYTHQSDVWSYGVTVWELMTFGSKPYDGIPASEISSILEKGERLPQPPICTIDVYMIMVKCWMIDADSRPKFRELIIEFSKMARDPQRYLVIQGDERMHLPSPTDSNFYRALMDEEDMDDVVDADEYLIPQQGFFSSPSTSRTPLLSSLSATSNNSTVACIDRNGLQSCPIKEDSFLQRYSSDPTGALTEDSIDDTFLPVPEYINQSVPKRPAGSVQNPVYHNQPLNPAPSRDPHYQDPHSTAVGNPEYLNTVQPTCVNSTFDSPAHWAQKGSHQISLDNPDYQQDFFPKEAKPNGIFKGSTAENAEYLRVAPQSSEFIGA
T8 sequence (P00533 with tags, fused parts or gaps DEL746-750/C797S limits assumed): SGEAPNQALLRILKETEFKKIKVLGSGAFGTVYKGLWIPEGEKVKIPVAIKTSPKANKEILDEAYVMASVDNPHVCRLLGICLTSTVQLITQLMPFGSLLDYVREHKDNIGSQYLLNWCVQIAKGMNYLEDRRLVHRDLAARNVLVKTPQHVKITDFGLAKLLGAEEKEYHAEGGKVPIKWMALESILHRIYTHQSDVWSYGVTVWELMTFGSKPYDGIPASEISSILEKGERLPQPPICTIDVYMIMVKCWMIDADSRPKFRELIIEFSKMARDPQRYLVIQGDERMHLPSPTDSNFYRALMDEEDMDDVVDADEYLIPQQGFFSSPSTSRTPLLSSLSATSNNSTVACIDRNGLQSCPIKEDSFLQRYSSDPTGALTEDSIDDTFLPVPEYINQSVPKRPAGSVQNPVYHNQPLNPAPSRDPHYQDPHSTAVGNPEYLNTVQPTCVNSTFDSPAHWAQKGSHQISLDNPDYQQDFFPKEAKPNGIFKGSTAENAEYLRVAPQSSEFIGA
T5 sequence (P00533 25-1210 T790M/C797S/L858R): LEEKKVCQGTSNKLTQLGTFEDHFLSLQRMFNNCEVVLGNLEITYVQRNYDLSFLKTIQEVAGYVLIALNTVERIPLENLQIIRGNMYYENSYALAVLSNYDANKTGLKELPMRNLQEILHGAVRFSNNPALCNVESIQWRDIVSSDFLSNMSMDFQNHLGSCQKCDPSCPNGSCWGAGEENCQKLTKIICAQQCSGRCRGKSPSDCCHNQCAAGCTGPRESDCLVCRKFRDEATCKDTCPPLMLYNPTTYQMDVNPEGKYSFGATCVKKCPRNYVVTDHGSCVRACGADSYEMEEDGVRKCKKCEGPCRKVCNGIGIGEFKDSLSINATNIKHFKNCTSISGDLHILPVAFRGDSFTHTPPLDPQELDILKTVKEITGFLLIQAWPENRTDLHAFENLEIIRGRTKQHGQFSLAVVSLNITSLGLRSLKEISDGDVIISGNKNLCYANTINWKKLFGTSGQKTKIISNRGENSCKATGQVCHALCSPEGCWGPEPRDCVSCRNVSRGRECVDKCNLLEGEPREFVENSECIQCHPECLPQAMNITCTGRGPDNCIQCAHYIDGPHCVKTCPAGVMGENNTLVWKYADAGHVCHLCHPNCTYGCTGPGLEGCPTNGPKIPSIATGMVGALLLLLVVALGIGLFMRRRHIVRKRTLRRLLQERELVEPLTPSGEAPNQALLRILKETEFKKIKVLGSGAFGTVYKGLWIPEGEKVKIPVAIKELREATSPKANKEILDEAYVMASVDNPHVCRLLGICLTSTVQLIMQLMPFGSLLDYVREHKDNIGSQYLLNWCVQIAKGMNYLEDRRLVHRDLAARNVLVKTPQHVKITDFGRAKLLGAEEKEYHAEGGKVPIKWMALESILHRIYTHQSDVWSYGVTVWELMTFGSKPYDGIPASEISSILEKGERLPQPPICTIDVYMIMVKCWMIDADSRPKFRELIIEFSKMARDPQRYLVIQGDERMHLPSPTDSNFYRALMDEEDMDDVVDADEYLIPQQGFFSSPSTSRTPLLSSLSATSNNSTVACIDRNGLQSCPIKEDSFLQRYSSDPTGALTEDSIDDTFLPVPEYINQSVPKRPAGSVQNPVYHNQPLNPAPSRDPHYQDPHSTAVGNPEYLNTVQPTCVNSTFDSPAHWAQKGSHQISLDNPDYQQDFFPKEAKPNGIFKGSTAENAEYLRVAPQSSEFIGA
T6 sequence (P00533 with tags, fused parts or gaps DEL746-750/T790M limits assumed): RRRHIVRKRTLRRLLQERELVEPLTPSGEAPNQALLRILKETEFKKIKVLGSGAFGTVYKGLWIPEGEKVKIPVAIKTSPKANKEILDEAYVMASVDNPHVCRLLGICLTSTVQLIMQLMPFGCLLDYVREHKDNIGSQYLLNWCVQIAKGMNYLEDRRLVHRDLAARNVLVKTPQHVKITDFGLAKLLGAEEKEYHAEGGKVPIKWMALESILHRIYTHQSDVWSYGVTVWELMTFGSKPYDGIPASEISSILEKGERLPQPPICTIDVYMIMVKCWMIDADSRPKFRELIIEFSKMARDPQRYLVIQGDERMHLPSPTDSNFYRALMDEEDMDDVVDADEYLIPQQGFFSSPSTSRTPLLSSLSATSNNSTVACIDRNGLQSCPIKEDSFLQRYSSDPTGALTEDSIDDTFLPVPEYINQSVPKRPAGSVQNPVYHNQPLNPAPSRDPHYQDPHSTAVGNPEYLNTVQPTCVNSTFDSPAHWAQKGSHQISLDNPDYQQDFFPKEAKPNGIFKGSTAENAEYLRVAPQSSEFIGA

Row | Structure (SMILES) | IC50 [1] | IC50 [2] | IC50 [3] | IC50 [4] | IC50 [5] | IC50 [6] | IC50 [7] | IC50 [8] | GI50 [9] | IC50 [10] | GI50 [11, 12] | GI50 [11, 13] | GI50 [11, 14] | GI50 [11, 15] | GI50 [11, 16] | GI50 [11, 17] | GI50 [11, 18]
1 | CN1CCC2(CC1)CN(c1ccc3nc4n(c3c1)C13CCC(CN(CCOc5c(cnn5C)-c5cc(cn(C)c5=O)C(=O)N4)C1)C3)C2 (single isomer, unassigned) [Example A77A] | > 5000 nM | > 5000 nM | > 5000 nM | 0.456 µM | > 5000 nM | > 5000 nM | > 5000 nM | 464 nM | 0.341 µM | 1110 nM | 0.102 µM | 0.326 µM | 0.32 µM | 0.125 µM | 0.368 µM | 0.375 µM | 0.212 µM
2 | CN1CCC2CN(c3ccc4nc5n(c4c3)C34CCC(CN(CCOc6c(cnn6C)-c6cc(cn(C)c6=O)C(=O)N5)C3)C4)CC21 (single isomer, unassigned) [Example A79A] | > 5000 nM | > 5000 nM | > 5000 nM | 1.43 µM | > 5000 nM | > 5000 nM | > 5000 nM | 1580 nM | 0.993 µM | > 5000 nM | 0.251 µM | 0.999 µM | 0.99 µM | 0.36 µM | 1.91 µM | 1.12 µM | 0.882 µM
3 | CN1CCN(C2CCN(c3ccc4nc5n(c4c3)C34CCC(CN(CCOc6c(cnn6C)-c6cc(cn(C)c6=O)C(=O)N5)C3)C4)C2)CC1 (single isomer, unassigned) [Example A80A2, 15,21-Dimethyl-5-[3-(4-methylpiperazin-1-yl)pyrrolidin-1-yl]-23-oxa-2,9,11,15,20,21,26-heptaazaheptacyclo[24.4.1.1^{1,28}.1^{13,17}.0^{2,10}.0^{3,8}.0^{18,22}]tritriaconta-3,5,7,9,13,17(33),18(22),19-octaene-12,16-dione] | 2190 nM | > 5000 nM | > 5000 nM | 0.49 µM | > 5000 nM | > 5000 nM | > 5000 nM | 530 nM | 0.381 µM | > 5000 nM | 0.057 µM | 0.17 µM | 0.1 µM | 0.125 µM | 0.126 µM | 0.315 µM | 0.136 µM
4 | CN1CCC2(CCN(c3ccc4nc5n(c4c3)C34CCC(CN(CCOc6c(cnn6C)-c6cc(cn(C)c6=O)C(=O)N5)C3)C4)CC2)C1 (single isomer, unassigned) [Example A82A] | 629 nM | > 5000 nM | 341 nM | 0.31 µM | > 5000 nM | 1410 nM | 2140 nM | 226 nM | 0.092 µM | 1210 nM | 0.096 µM | 0.186 µM | 0.108 µM | 0.076 µM | 0.129 µM | 0.137 µM | 0.2 µM

Other lines, results leading:

Row | IC50 [1] | IC50 [2] | IC50 [3] | IC50 [4] | IC50 [5] | IC50 [6] | IC50 [7] | IC50 [8] | GI50 [9] | IC50 [10] | GI50 [11, 12] | GI50 [11, 13] | GI50 [11, 14] | GI50 [11, 15] | GI50 [11, 16] | GI50 [11, 17] | GI50 [11, 18] | Structure (SMILES)
5 | > 5000 nM | > 5000 nM | > 5000 nM | 0.451 µM | > 5000 nM | > 5000 nM | 1140 nM | 400 nM | 0.768 µM | 1310 nM | 0.157 µM | 0.516 µM | 0.48 µM | 0.302 µM | 1.04 µM | 0.997 µM | 0.545 µM | CN(C)C1CN(c2ccc3nc4n(c3c2)C23CCC(CN(CCOc5c(cnn5C)-c5cc(cn(C)c5=O)C(=O)N4)C2)C3)CC1F (single isomer, unassigned) [Example A84B, 15,21-Dimethyl-5-[4-fluoro-3-(N,N-dimethylamino)pyrrolidinyl]-23-oxa-2,9,11,15,20,21,26-heptaazaheptacyclo[24.4.1.1^{1,28}.1^{13,17}.0^{2,10}.0^{3,8}.0^{18,22}]tritriaconta-3,5,7,9,13,17(33),18(22),19-octaene-12,16-dione]
6 | 3660 nM | > 5000 nM | > 5000 nM | 0.138 µM | > 5000 nM | > 5000 nM | 1280 nM | 308 nM | 0.387 µM | 1590 nM | 0.095 µM | 0.119 µM | 0.188 µM | 0.167 µM | 0.303 µM | 0.364 µM | 0.159 µM | CN(C)CCN(C)c1ccc2nc3n(c2c1)C12CCC(CN(CCOc4c(cnn4C)-c4cc(cn(C)c4=O)C(=O)N3)C1)C2 (single isomer, unassigned) [Example A85A]
7 | > 5000 nM | > 5000 nM | > 5000 nM | 0.689 µM | > 5000 nM | > 5000 nM | 2820 nM | 599 nM | 0.989 µM | 2120 nM | 0.05 µM | 0.12 µM | 0.181 µM | 0.244 µM | 0.264 µM | 0.367 µM | 0.123 µM | CN1CCOC2(C1)CN(c1ccc3nc4n(c3c1)C13CCC(CN(CCOc5c(cnn5C)-c5cc(cn(C)c5=O)C(=O)N4)C1)C3)C2 (single isomer, unassigned) [Example A86A]
